Source: article PMC5856391, “Critical role of C-terminal residues of the Alzheimer's associated β-amyloid protein in mediating antiviral activity and modulating viral and bacterial interactions with neutrophils” (PLoS ONE, 2018)
Entries after “also recorded” stand apart in the source; their conditions may differ.

What was measured:
[1] = test system: Philippines 82/H3N2 (Phil82) influenza A virus; assay type: cell-based
IAV [2] = experiment: Viral aggregation by electron microscopy; parameters: species or system influenza A virus; conditions: 2 or 8μg/ml of peptide; LPS control 10 EU/ml; representative of 3 experiments; Fig 2C
IAV [3] = experiment: Confocal microscopy of Alexa Fluor 594 labeled IAV on MDCK cells; assay type: cell-based, influenza A virus; conditions: Alexa Fluor 594 labeled IAV pre-incubated with peptide 30 minutes at 37°C, then MDCK cells 45 min; 3 experiments; Fig 3
human neutrophils [4] = experiment: IAV uptake by neutrophils (flow cytometry); assay type: cell-based; conditions: FITC-IAV (Phil82) treated with peptide 30 min at 37°C, then neutrophils 45 minutes at 37°C, trypan blue quench, 5 experiments, separate donors
[5] = test system: Escherichia coli (E.coli); experiment: Aggregation of rhodamine labeled E.coli (fluorescent microscopy); conditions: rhodamine E. coli preincubated with 50ug/ml peptide for 1 hour at 37°C, fluorescent microscope; three experiments; Fig 6
human neutrophils [6] = experiment: Neutrophil uptake of rhodamine labeled E.coli; assay type: cell-based; conditions: for Neutrophil uptake of E.coli: rhodamine labeled E.coli pre-incubated with peptide, flow cytometry, 5 experiments, separate donors, Fig 7
IAV [7] = experiment: Viral aggregation by light absorbance at 350 nm; parameters: species or system influenza A virus; conditions: for Aggregation of IAV particles (light transmission at 350nm): dilute suspension of IAV, Fig 2A and 2B (8 and 16μg/ml)
human neutrophils [8] = assay type: cell-based; conditions: compared to IAV alone, 5 experiments
[9] = parameters: method as in PMID 24449257; conditions: simulation kinetics and energetics, compared with βA 35–40 and βA37-42; cited from earlier work

Sequence | Inhibition of IAV infectivity (neutralization) [1] | Viral aggregation by electron microscopy (IAV [2]) | Viral aggregates visible by confocal microscopy (IAV [3]) | Neutrophil uptake of IAV (human neutrophils [4]; Fig 4) | Aggregation of fluorescent E.coli [5] | Neutrophil uptake of E.coli (human neutrophils [6]) | Aggregation of IAV (light transmission at 350nm), 16μg/ml (IAV [7]; 16μg/ml of βA peptides, Fig 2B) | Aggregation of IAV particles (light transmission at 350nm) (IAV [7]) | Aggregation of IAV particles (light transmission at 350nm) (IAV [7]; listed as 22–42) | Neutrophil uptake of IAV (human neutrophils [4]; Fig 4, listed as 22–42) | Neutrophil H2O2 formation in response to IAV, 16μg/ml (human neutrophils [8]; IAV pre-incubated with 16μg/ml peptide, Fig 5A) | Neutrophil H2O2 production in response to IAV (human neutrophils [8]; IAV pre-incubated with peptide, Fig 5B) | Neutrophil uptake of E.coli, 32μg/ml (human neutrophils [6]; 32μg/ml peptide, Fig 7A) | Propensity to assemble into unorganized oligomers [9]
EDVGSNKGAIIGLMVGGVV [βA22-40, βA fragment of residues 22-40, obtained from Genscript] | no or minimal antiviral activity | did not | not | lacked activity | did not | slight but significantly increased uptake at the highest concentration tested | – | – | – | – | – | – | – | –
EDVGSNKGAIIGLMVGGVVIA [βA22-42, βA fragment of residues 22-42, obtained from Genscript] | significantly inhibited infectivity | marked viral aggregation | Aggregates were visible; also recorded: Aggregates were apparent | greater increases than βA1-42 | caused aggregation | marked increase in uptake | statistically significant aggregation | highest activity in this assay | caused aggregation of IAV particles | had the ability to increase viral uptake | increased H2O2 formation as compared to IAV alone | – | – | –
GLMVGGVV [βA33-40, βA fragment of residues 33-40, obtained from Genscript] | no or minimal antiviral activity | – | – | lacked activity | – | No significant effects | – | – | – | – | – | – | – | –
MVGGVVIA [βA35-42, 8 amino acid βA fragment of residues 35-42, obtained from Genscript] | significantly inhibited infectivity | – | – | increased uptake at the highest concentration tested | – | – | – | caused aggregation of IAV particles | – | – | – | did not increase H2O2 production | some increase in E.coli uptake | increased propensity
